Assays:
[1] = molecular target: T1, hMAO-A (Homo sapiens, UniProt P21397); assay: MAO-Glow inhibitory potency (IC50) and relative selectivity; type: biochemical; settings: for MAO isozyme selectivity: comparison of hMAO-A and hMAO-B IC50s; for IC50: mean ± SEM, at least two experiments, LDS 40 μM; for hMAO-A relative selectivity (RSA): RSA = hMAO-B IC50/hMAO-A IC50
T1 construct: purchased Sigma-Aldrich Co. (St. Louis, MO, USA)
T1 sequence (P21397 1-527): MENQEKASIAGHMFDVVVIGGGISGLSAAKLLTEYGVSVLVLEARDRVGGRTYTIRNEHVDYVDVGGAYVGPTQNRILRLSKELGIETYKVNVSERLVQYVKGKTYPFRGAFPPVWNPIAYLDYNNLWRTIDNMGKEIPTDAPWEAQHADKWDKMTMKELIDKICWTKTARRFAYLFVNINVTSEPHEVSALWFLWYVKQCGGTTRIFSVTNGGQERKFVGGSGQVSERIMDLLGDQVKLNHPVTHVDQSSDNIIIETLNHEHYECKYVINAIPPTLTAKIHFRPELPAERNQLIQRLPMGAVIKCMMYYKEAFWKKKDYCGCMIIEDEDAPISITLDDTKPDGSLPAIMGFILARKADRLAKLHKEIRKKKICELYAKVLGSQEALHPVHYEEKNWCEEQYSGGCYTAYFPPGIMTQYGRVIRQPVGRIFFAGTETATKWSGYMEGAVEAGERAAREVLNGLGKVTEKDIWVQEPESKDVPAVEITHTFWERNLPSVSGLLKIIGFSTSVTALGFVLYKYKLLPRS
Method: The inhibitory effects of the synthesized KKRs of hMAO-A and B were tested by measuring the decrease in arbitrary light units (ALU) signal produced by the optimized isozymes using the MAO-Glow™ Assay at 37 °C. In this assay, DMSO stock for each KKR compound was diluted with a reaction buffer of pH 7.4 to make a 4X working solution for a maximum final concentration of 100 μM and ≤1% DMSO. The experiments were run in the absence and presence of 4X the miscellaneous standards of MAO-BIs (DEP, PARG, and SAF) and MAO-AIs (PIRL and CLORG), with similar concentrations. In white opaque 96-well microplates, 12.5 μL of each compound was plated at RT and was followed by 25 μL of 2X cold hMAO-A or hMAO-B, for a final concentration of 0.44 U/mL. A related buffer substituted each isozyme to make the blank wells and substituted each compound to make the negative control wells. Following this, we added 12.5 μL of 4X LDS to make a final substrate concentration of 40- and 4-μM for hMAO-A and hMAO-B, respectively. All screen plates were incubated at 37 °C for 60 min. The plates of 50 μL/well were then taken out from the incubator, and their reactions were stopped by an equal volume of 50 μL of reporter luciferin detection reagent (RLDR). After 30 min, the luminescence signals for all plates were read on a Synergy HTX Multi-reader from Bio-Tek (Winooski, VT, USA).
The experiments were performed in the presence and absence of the standard PILR. In white opaque 96-well plates, each KKR compound was serially diluted with a reaction buffer of pH 7.4 at the highest possible maximum final concentration, and the least used DMSO (<2%). In blank wells, the related reaction buffer substituted the isozyme. In negative control wells, the reaction buffer substituted each compound concentration. Then, the procedure was carried out as mentioned above (Section 4.2.2), and the reaction was detected on the Bio-Tek Synergy HTX Multi-Reader. The IC50 of each KKR on both isozymes was determined and subsequently the RSA and RSB was calculated.
Statistical analyses were performed using the GraphPad Prism program (version 6.07 for Windows) from the GraphPad Prism Software Incorporated (San Diego, CA, USA). All data points and parameters were expressed as the mean ± SEM. All parameters were calculated from non-linear and linear regressions with the best R^2 values, no less than 93%. The inhibitory concentration of 50% of isozyme (IC50) of each compound was obtained by the interpolation of a normalized variable slope logarithmic curve. The RSA values of the selected compounds were calculated from their IC50 average means following the equation RSA = hMAO − B IC50/Hmao − A IC50(1)

[2] = test system: LNCaP cells; assay: Antiproliferation dose-response assay for 72 h; type: cell-based; settings: Homo sapiens, mean ± SEM of two experiments, read-out: antiproliferative IC50
Method: For the top effective KKRs, along with TAX, their potency to reduce the affected PCa cell line growth in a dose-dependent manner was determined using the resazurin fluorescence assay. We followed the same protocols and materials used for the antiproliferation screen assays (Section 4.3.2), with the following modifications. The maximum final KKR concentration used was 40 μM. The concentration of 8X of each KKR working solution in 1% HEPES 7.4 was serially diluted in a 3:1 ratio, compound to buffer, respectively. Each data set was collected from ten data points of 3.7–40 μM range. The control had the KKR substituted with buffer. The related IC50 averages were analyzed for the compounds that affected the cell lines the most.

[3] = test system: LNCaP cells; assay: cells; type: cell-based, human; settings: for effect on LNCaP proliferation and cell morphology: 20 μM, five days, phase contrast; for viability at 20 µM: Homo sapiens, LNCaP, 120 h, read-out: percentage of treated group compared to the viable control
Method: The morphological alterations of the LNCaP cells were imaged, and their percentage proliferation rate was measured after five-days of incubation. The method of subculture and treatment were similar to our antiproliferation assay, with slight modifications. Briefly, the cells were seeded in transparent flat-bottom 96-well microplates with 10,000 cells/175 μL/well of […] experimental media. Following overnight incubation, 20 μM concentration level (~2 × IC50) for each of KKR11, 20, 7, 2A, 21, and the standard PIRL were added to the cells for a total volume of 200 μL/well and re-incubated for five-days. On the day of imaging, 20X phase-contrast images of lid-covered treated and control cells were captured using an inverted microscope. Resazurin was then added for viability detection, and the imaged cells in the wells were read after 4.5 h on the Bio-Tek Synergy HTX Multi-reader.

Row | SMILES | MAO isozyme selectivity [1] | IC50 [1] [µM] | IC50 [2] [µM] | hMAO-A relative selectivity (RSA) [1] [folds] | effect on LNCaP proliferation and cell morphology [3] | viability at 20 µM [3] [%]
1 | COc1cc(OC)c2c(=O)c(O)c(/C=C/c3cc(OC)c(OC)c(OC)c3)oc2c1 [KKR2A, (E)-3-hydroxy-5,7-dimethoxy-2-(3,4,5-trimethoxystyryl)-4H-chromen-4-one] | non-selective MAO inhibitory activity | 1.03 ± 0.04 | > 40 | – | neither significant effects on LNCaP proliferation nor apparent changes in cell morphology | 96
2 | COc1cc(O)c(C(=O)/C=C/c2ccc(Cl)c(Cl)c2)c(OC)c1 [KKR11, (E)-3-(3,4-dichlorophenyl)-1-(2-hydroxy-4,6-dimethoxyphenyl)prop-2-en-1-one] | non-selective MAO-I | 0.31 ± 0.03 | 9.5 | – | dramatically and differently altered cell morphology with a highly significant loss of proliferation | 11
3 | O=c1cc(-c2ccccc2)oc2cc(Cl)c(Cl)cc12 [KKR21, 6,7-dichloro-2-phenyl-4H-chromen-4-one] | highly selective MAO-AIs | 0.019 | > 40 | > 42105 | neither significant effects on LNCaP proliferation nor apparent changes in cell morphology | 94

Continued, in another order:

Row | MAO isozyme selectivity [1] | IC50 [1] [µM] | IC50 [2] [µM] | hMAO-A relative selectivity (RSA) [1] [folds] | SMILES | effect on LNCaP proliferation and cell morphology [3] | viability at 20 µM [3] [%]
4 | highly selective MAO-AIs | 16 ± 0.53 | 9.1 | > 42105 | O=c1c(O)c(-c2ccccc2)oc2c(Cl)cc(Cl)cc12 [KKR7, 6,8-dichloro-3-hydroxy-2-phenyl-4H-chromen-4-one] | dramatically and differently altered cell morphology with a highly significant loss of proliferation | 25
5 | in favor to inhibit MAO-B | 2.94 ± 0.39 | 9.2 | – | O=C(/C=C/c1ccccc1)c1cc(Cl)cc(Cl)c1O [KKR20, (E)-1-(3,5-dichloro-2-hydroxyphenyl)-3-phenylprop-2-en-1-one] | dramatically and differently altered cell morphology with a highly significant loss of proliferation | 26

Source: article PMC7249060, “The Antiproliferative Effects of Flavonoid MAO Inhibitors on Prostate Cancer Cells” (Molecules, 2020)
